The test system of the assay is target crop insects. Briefly: Field trials, overall statement. It is filed as in vivo. Conditions: at half the rate of cypermethrin, or even lower. From the text: Field trials conducted on cotton in Louisiana, Mississippi, Alabama, and Arizona consisted of a randomized complete block design of four replications per treatment. Plots were a minimum of 0.2 acres, and all applications were by commercial ground equipment with a minimum of 10 gallons total spray solution per acre. The cypermethrin isomer content (weight %) of the several sigma-cypermethrin technical products used in the field trials were as follows:
Analysis of the data was based on a seasonal average of multiple evaluations taken over a four to six week period (3-4 applications) in trials for control of Heliothis sp.
Field trials conducted on lettuce in California for evaluation of the control of cabbage looper consisted of a randomized complete block design of four replications per treatment. Applications were made to small plots with CO2 backpack sprayer using a minimum of 10 gallons per acre. Results were converted to percent control based on untreated check plots.
Field trials were conducted in Louisiana, North Carolina, Texas, Kentucky, Tennessee, and Illinois to evaluate the control of alfalfa weevil (Hypera postica). Small plot trials were used in a randomized block design with four replications per treatment. Applications were made with CO2 backpack sprayers. […]

On to `CC1(C)C(C=C(Cl)Cl)C1C(=O)O[C@H](C#N)c1cccc(Oc2ccccc2)c1` (mixture of isomers) [sigma-cypermethrin, (S)(cyano)(3-phenoxyphenyl)methyl cis/trans-3-(2,2-dichloroethenyl)-2,2-dimethylcyclopropanecarboxylate], for which the “field results relative to cypermethrin” value is recorded as “generally gave results essentially equivalent to that obtained with cypermethrin applied at the recommended rate”.

These data come from patent US5164411A, “Pyrethroid compositions” (priority 1991, dated 1992).
